Reference: ChEMBL document CHEMBL4406814, “Furocoumarins as multi-target agents in the treatment of cystic fibrosis” (Eur J Med Chem, 2019)
pIC50: −log10 of the molar value.

Legend:
Format in all cases: cell-based
[1] = Inhibition of TNF-alpha induced NFkappaB in human IB31 cells assessed as reduction in IL-8 mRNA expression preincubated for 5 hrs followed by TNF-alpha stimulation measured after 24 hrs by RT-qPCR analysis; conditions: IB3-1
[2] = tested on: IB3-1; assay: Inhibition of TNF-alpha induced NFkappaB in human IB3-1 cells assessed as reduction in IL-8 mRNA expression at 1 uM preincubated for 5 hrs followed by TNF-alpha stimulation measured after 24 hrs by RT-qPCR analysis relative to control
[3] = tested on: IB3-1; assay: Inhibition of TNF-alpha induced NFkappaB in human IB3-1 cells assessed as reduction in IL-8 mRNA expression at 10 uM preincubated for 5 hrs followed by TNF-alpha stimulation measured after 24 hrs by RT-qPCR analysis relative to control

Row | Compound | pIC50 [1] | inhibition [2] [%] | inhibition [3] [%]
1 | CCc1cc(=O)oc2c1cc(C)c1occ(C)c12 | 5.10 |  | 
2 | Cc1cc(=O)oc2c1ccc1oc(CN)cc12 |  | 55 | 83
3 | Cc1oc2c(C)cc3c(C)cc(=O)oc3c2c1C |  | 57 | 56
4 | Cc1cc2c(CO)cc(=O)oc2c2c(C)coc12 |  | 51 | 52
5 | CCc1cc(=O)oc2c1cc(CC)c1occ(C)c12 | 4.75 |  | 
6 | Cc1cc2c(C)cc3oc(=O)cc(C)c3c2o1 |  | 68 | 81
7 | CCc1cc2c(C(C)C)cc(=O)oc2c2c(C)coc12 | 5.13 |  | 
8 | CCc1cc2c(C)cc(=O)oc2c2c(C)coc12 | 4.62 |  | 
9 | Cc1coc2c1c(C)cc1oc(=O)cc(C)c12 |  | 73 | 52
10 | Cc1cc2c(C(C)C)cc(=O)oc2c2c(C)coc12 | 4.72 |  | 
11 | Cc1oc2c(c(C)cc3oc(=O)cc(C)c32)c1C |  | 66 | 47
12 | CCCc1cc(=O)oc2c1cc(C)c1occ(C)c12 | 4.66 |  | 
13 | CCCc1cc(=O)oc2c1cc(CC)c1occ(C)c12 | 4.70 |  | 
